Test: photoluminescence quantum yield (fraction); solvent given as SMILES
[1] = in c1cc(-c2cccc(-n3c4ccccc4c4ccccc43)c2)cc(-n2c3ccccc3c3ccccc32)c1

COC(=O)c1ccc(C#Cc2ccccc2)cc1
photoluminescence quantum yield (in C1CCCCC1): 0.421
photoluminescence quantum yield (in CC#N): 0.277
photoluminescence quantum yield (in CC(C)O): 0.398
photoluminescence quantum yield (in CCCCCC): 0.42
photoluminescence quantum yield (in CCCCCCCCCCCCCCCC): 0.429
photoluminescence quantum yield (in CCCCCCCCCCCCCCCCCl): 0.441
photoluminescence quantum yield (in CO): 0.305

CC[n+]1nc2cc3c4c(c2c2cc(F)ccc21)CCCN4CCC3
photoluminescence quantum yield (in O): 0.34

COc1nc(Cl)nc(Nc2ccc3cc4ccccc4cc3c2)n1
photoluminescence quantum yield (in C1COCCO1): 0.25
photoluminescence quantum yield (in CC#N): 0.03
photoluminescence quantum yield (in CCCCOCCCC): 0.25
photoluminescence quantum yield (in CCOC(C)=O): 0.12

C#CCN1C(=O)/C(=C/c2cc(OC(C)C)ccc2OC(C)C)N=C1C
photoluminescence quantum yield (in C1COCCO1): 0.108
photoluminescence quantum yield (in CC#N): 0.134
photoluminescence quantum yield (in CC(C)=O): 0.12
photoluminescence quantum yield (in CCCCCC): 0.089
photoluminescence quantum yield (in CCCCO): 0.029
photoluminescence quantum yield (in CCCO): 0.08
photoluminescence quantum yield (in CCO): 0.025
photoluminescence quantum yield (in CCOC(C)=O): 0.101
photoluminescence quantum yield (in CN(C)C=O): 0.171
photoluminescence quantum yield (in CO): 0.019
photoluminescence quantum yield (in CS(C)=O): 0.182

COc1cc(OC)c2c(c1)c1cc3oc(=O)cc(C)c3cc1c1cc(OC)cc(OC)c12
photoluminescence quantum yield (in ClC(Cl)Cl): 0.1

Cc1ccc2cc(C)ccc2c1
photoluminescence quantum yield (in C1CCCCC1): 0.59

Nc1n[n+]([O-])c2ccccc2[n+]1[O-]
photoluminescence quantum yield (in CC#N): 0.006
photoluminescence quantum yield (in O): 0.0033

CC(C)[Si](C#Cc1cc2c3c(c1)c(=C1c4ccccc4Sc4ccccc41)c1cc(C#C[Si](C(C)C)(C(C)C)C(C)C)cc4c1N3c1c(cc(C#C[Si](C(C)C)(C(C)C)C(C)C)cc1c4=C1c3ccccc3Sc3ccccc31)c2=C1c2ccccc2Sc2ccccc21)(C(C)C)C(C)C
photoluminescence quantum yield (in ClCCl): 0.46

CCC1=C(C)C2=Cc3cc(I)cn3[B-](F)(F)[N+]2=C1C
photoluminescence quantum yield (in C1CCCCC1): 0.113
photoluminescence quantum yield (in CC(C)=O): 0.063
photoluminescence quantum yield (in CCO): 0.07
photoluminescence quantum yield (in CCOC(C)=O): 0.078
photoluminescence quantum yield (in CO): 0.069
photoluminescence quantum yield (in OCC(F)(F)F): 0.05

CC1(C)CC(/C=C/c2ccc(-n3ccnc3)cc2)=CC(=C(C#N)C#N)C1
photoluminescence quantum yield (in CCO): 0.0001

CC(C)(C)c1ccc2c(c1)c1ncncc1c1c3ccccc3sc21
photoluminescence quantum yield (in ClCCl): 0.1

CCCCCCCCCCCCn1cccc1/C=C/c1ccc(/C=C/c2cccn2CCCCCCCCCCCC)cc1
photoluminescence quantum yield (in Cc1ccccc1): 0.32

COC(=O)C1=C(C(=O)OC)C2(c3ccccc3-c3ccccc32)[C@@H](c2ccc([N+](=O)[O-])cc2)C=C2c3cc(OC)c(OC)cc3CCN21
photoluminescence quantum yield (in ClCCl): 0.00065

CC1(C)c2ccccc2N(c2ccc3c(c2)c2ccccc2c2nc4ccccc4nc32)c2ccccc21
photoluminescence quantum yield [1]: 0.42

O=C([O-])c1cc2c(ccc3ccccc32)oc1=O
photoluminescence quantum yield (in O): 0.24

Cc1c(C)c(B(c2c(C)c(C)c(C#N)c(C)c2C)c2c(C)c(C)c(N3c4ccccc4Oc4ccccc43)c(C)c2C)c(C)c(C)c1C#N
photoluminescence quantum yield (in c1ccc([Si](c2ccccc2)(c2ccc(-n3c4ccccc4c4ccccc43)cc2)c2ccc(-n3c4ccccc4c4ccccc43)cc2)cc1): 0.67

COc1ccc2c(c1)C(=O)c1cc(OC)cc(OC)c1-2
photoluminescence quantum yield (in C1CCCCC1): 0.0024
photoluminescence quantum yield (in CC#N): 0.0001
photoluminescence quantum yield (in CCO): 0

Cc1cc(-c2ccc(C(C)(C)C)cc2)cc(C)[o+]1
photoluminescence quantum yield (in CC#N): 0.36
photoluminescence quantum yield (in ClCCl): 0.25

C[n+]1cc2ccc3c[n+](C)c4ccccc4c3c2c2ccccc21
photoluminescence quantum yield (in CC#N): 0.066

Fc1c(F)c(-n2c3ccccc3c3ccccc32)c(F)c(F)c1-c1nnc(-c2ccccc2)o1
photoluminescence quantum yield (in Cc1ccccc1): 0.27

CN(C)c1ccc(/C=C/c2ccc(-c3cc(-c4ccccn4)nc(-c4ccccn4)c3)cc2)cc1
photoluminescence quantum yield (in C1CCOC1): 0.54
photoluminescence quantum yield (in C1COCCO1): 0.48
photoluminescence quantum yield (in CC#N): 0.41
photoluminescence quantum yield (in CCO): 0.24
photoluminescence quantum yield (in ClCCl): 0.62

CCCCC(CC)COc1cc(OCC(CC)CCCC)c2c#cc3ccc4sc5ccc(c#cc6cc(c#cc7ccc8sc9ccc(c#cc1c2)cc9c8c7)c(C(CCCC)OCCC)cc6C(CCCC)OCCC)cc5c4c3 (stereo unspecified)
photoluminescence quantum yield (in ClCCl): 0.22

CCCCn1c(=O)c2cc3ccc4cccc5ccc(c2c1=O)c3c45
photoluminescence quantum yield (in ClC(Cl)Cl): 0.52

O=c1c2ccccc2c2c(C#C[Si](c3ccccc3)(c3ccccc3)c3ccccc3)c3c(=O)c4ccccc4c3c(C#C[Si](c3ccccc3)(c3ccccc3)c3ccccc3)c12
photoluminescence quantum yield (in ClC(Cl)Cl): 0.09

COc1ccc(-c2nc(-c3ccc(OC)cc3)c(-c3ccc(OC)cc3)[nH]2)cc1
photoluminescence quantum yield (in CO): 0.2

COc1ccc(-c2csc(/C(C#N)=C/c3c(Cl)cccc3Cl)n2)cc1
photoluminescence quantum yield (in CC#N): 0.038

O=C(O)c1ccccc1Nc1cccc(C(F)(F)F)c1
photoluminescence quantum yield (in C1CCCCC1): 0.016
photoluminescence quantum yield (in C1CCOC1): 0.016
photoluminescence quantum yield (in C1COCCO1): 0.026
photoluminescence quantum yield (in CC#N): 0.004
photoluminescence quantum yield (in CCOC(C)=O): 0.014
photoluminescence quantum yield (in CN(C)C=O): 0.006
photoluminescence quantum yield (in CO): 0.001
photoluminescence quantum yield (in ClC(Cl)Cl): 0.022

O=C(c1ccc(-n2c3ccccc3c3ccccc32)cc1)c1ccc(-n2c3ccccc3c3ccccc32)cc1
photoluminescence quantum yield (in Cc1ccccc1): 0.21
photoluminescence quantum yield (in O=P(c1ccccc1)(c1ccccc1)c1ccccc1Oc1ccccc1P(=O)(c1ccccc1)c1ccccc1): 0.55

COc1cc2c(cc1-c1ccc(C)cc1)Cc1c3c(c4c(c1-2)-c1cc(OC)c(-c2ccc(C)cc2)cc1C4)C(=O)N(CCC(C)C)C3=O
photoluminescence quantum yield (in C1CCOC1): 0.67

CCCCCCOc1ccc(N(c2ccc(OCCCCCC)cc2)c2ccc(-c3sc(-c4ccc(N(c5ccc(OCCCCCC)cc5)c5ccc(OCCCCCC)cc5)cc4)c4nc(-c5ccc(OC)cc5)c(-c5ccc(OC)cc5)nc34)cc2)cc1
photoluminescence quantum yield (in CN(C)C=O): 0.0287
photoluminescence quantum yield (in ClC(Cl)Cl): 0.014

O=Cc1c(O)c(-c2nc3ccccc3s2)cc2ccccc12
photoluminescence quantum yield (in C1CCOC1): 0.066
photoluminescence quantum yield (in CC#N): 0.052
photoluminescence quantum yield (in CC(C)=O): 0.053
photoluminescence quantum yield (in CCO): 0.07
photoluminescence quantum yield (in CCOC(C)=O): 0.068
photoluminescence quantum yield (in CN(C)C=O): 0.077
photoluminescence quantum yield (in CO): 0.061
photoluminescence quantum yield (in Cc1ccccc1): 0.068
photoluminescence quantum yield (in ClC(Cl)Cl): 0.065
photoluminescence quantum yield (in ClCCl): 0.109

C[Si]1(C)c2ccc(-c3ccc(N(c4ccccc4)c4ccccc4)cc3)cc2C=Cc2cc(-c3ccc(N(c4ccccc4)c4ccccc4)cc3)ccc21
photoluminescence quantum yield (in ClCCl): 0.43

Cc1ccc(N(c2ccc(C)cc2)c2cc(N(c3ccc(C)cc3)c3ccc(C)cc3)c3ccc4cc(C(C)(C)C)cc5ccc2c3c54)cc1
photoluminescence quantum yield (in ClCCl): 0.78

COc1ccc(C2=C/C(=C\c3ccc(C#N)cc3)C(=O)O2)cc1OC
photoluminescence quantum yield (in C1COCCO1): 0.45

Cc1ccc(-c2ccc(/C=C/c3ccc(Br)n3C)cn2)nc1
photoluminescence quantum yield (in CC#N): 0.13

CCNc1ccc2c(c1)C(C)(C)C(=O)C=C2
photoluminescence quantum yield (in O): 0.18

Cc1ccc(C2=Nc3cccc4[n+]3[B-](F)(O2)OC(c2ccc(C)cc2)=N4)cc1
photoluminescence quantum yield (in ClCCl): 0.3

Cc1cn2cc(-c3ccc(-c4ccccc4)cc3)[n-][n+]2c1
photoluminescence quantum yield (in ClCCl): 0.27

N#Cc1ncc(-c2c3ccccc3c(-c3cnc(C#N)nc3)c3ccccc23)cn1
photoluminescence quantum yield (in CCO): 0.05
photoluminescence quantum yield (in ClCCl): 0.57

CC(C)[Si](C#Cc1ccc(C#C[Si](C(C)C)(C(C)C)C(C)C)c2nc3c(nc12)C1c2ccccc2C3c2ccccc21)(C(C)C)C(C)C
photoluminescence quantum yield (in CCCCCC): 0.1

CC(C)(C)c1ccc(Oc2cc3c4c(cc(Oc5ccc(C(C)(C)C)cc5)c5c6c(Oc7ccc(C(C)(C)C)cc7)cc7c8c(cc(Oc9ccc(C(C)(C)C)cc9)c(c2c45)c86)C(=O)N(c2ccccc2)C7=O)C(=O)N(c2ccccc2)C3=O)cc1
photoluminescence quantum yield (in ClC(Cl)Cl): 0.86

CCCCC(CC)CN1C(=O)c2cc(Oc3ccc(C(C)(C)C)cc3)c3c4c(Oc5ccc(OC)cc5)cc5c6c(cc(Oc7ccc(OC)cc7)c(c7c(Oc8ccc(C(C)(C)C)cc8)cc(c2c37)C1=O)c64)C(=O)N(c1c(C(C)C)cccc1C(C)C)C5=O (stereo unspecified)
photoluminescence quantum yield (in Cc1ccccc1): 0.57

CCCCCCCN1C(=CC2=C([O-])C(=CC3=[N+](CCCCCCC)c4ccccc4C3(C)C)C2=C(C#N)C#N)C(C)(C)c2ccccc21
photoluminescence quantum yield (in C1COCCO1): 0.19
photoluminescence quantum yield (in CCO): 0.13
photoluminescence quantum yield (in CN(C)C=O): 0.08
photoluminescence quantum yield (in ClC(Cl)Cl): 0.18

CCOC(=O)C1=C(N)n2c(=O)c3ccccc3c(=O)n2C1c1ccccc1 (stereo unspecified)
photoluminescence quantum yield (in CS(C)=O): 0.136

CCOC(=O)C1=CN(c2ccccc2)C=CC1c1ccccc1 (stereo unspecified)
photoluminescence quantum yield (in C1CCOC1): 0.12
photoluminescence quantum yield (in CO): 0.05

CC(C)c1cccc(C(C)C)c1N1C(=O)c2cccc3c(Oc4ccc(Cl)cc4)ccc(c23)C1=O
photoluminescence quantum yield (in ClCCl): 0.64

Cc1cc(O)c(C(=O)/C=C/c2ccc(N(C)C)cc2)c(=O)o1
photoluminescence quantum yield (in CC#N): 0.018
photoluminescence quantum yield (in ClCCl): 0.538

c1ccc(-c2nc(-c3ccccc3)nc(-c3ccc(-c4ccc5c(c4)[Si](c4ccccc4)(c4ccccc4)c4cc(-c6ccc(-c7nc(-c8ccccc8)nc(-c8ccccc8)n7)cc6)ccc4N5c4ccccc4)cc3)n2)cc1
photoluminescence quantum yield [1]: 0.96

CC1=[N+]2C(=C(C3=CC4OCCOCCOCCOCCOC4C=C3)c3c4ccccc4c(/C=C/c4ccc(N(C)C)cc4)n3[B-]2(F)F)c2ccccc21 (stereo unspecified)
photoluminescence quantum yield (in CC#N): 0.24

COc1ccc(-c2cc3c(ccc4sc5ccc6sccc6c5c43)s2)cc1
photoluminescence quantum yield (in ClCCl): 0.12

N#CC1=C(N)n2c(=O)c3ccccc3c(=O)n2C1c1cccs1 (stereo unspecified)
photoluminescence quantum yield (in CS(C)=O): 0.08

CN(C)c1ccc(C2=Nc3scc[n+]3[B-](F)(F)O2)cc1
photoluminescence quantum yield (in C1CCOC1): 0.99
photoluminescence quantum yield (in CC#N): 0.1
photoluminescence quantum yield (in Cc1ccccc1): 0.99
photoluminescence quantum yield (in ClCCl): 0.86

CC/[NH+]=c1\cc2oc3cc(NCCC(=O)O)c4ccccc4c3nc-2cc1C
photoluminescence quantum yield (in CCO): 0.44
photoluminescence quantum yield (in O): 0.28

COc1c(/C=N/Nc2ccc(C#N)cc2)ccc2ccccc12
photoluminescence quantum yield (in CO): 0.16

Cc1cccc(C)c1Nc1ccc(/C=C/c2ccc3ccccc3c2)cc1
photoluminescence quantum yield (in CC#N): 0.08
photoluminescence quantum yield (in CCCCCC): 0.2

Source: the Deep4Chem optical property database
